Activity calls are given as the source filed them. The rule behind the calls is not given here.

We go through eight compounds from ChEMBL document CHEMBL1156080, “Small molecule inhibitors of Myc/Max dimerization and Myc-induced cell transformation” (Bioorg Med Chem Lett, 2009).

The nature of data set [1]: Inhibition of Myc/Max heterodimerization at 20 uM by FRET assay.
In data set [2] the target is Proto-oncogene tyrosine-protein kinase Src (Gallus gallus) (UniProt P00523). Put plainly: Inhibition of Src-mediated oncogenic transformation in chicken embryo fibroblasts.
The species named for the next data set is Gallus gallus. The data set can be described thus: Inhibition of Myc/Max heterodimerization in chicken embryo fibroblasts assessed as inhibition of oncogenically transformed cell foci formation at 20 uM.
The target in data set [3] is Transcription factor Jun (Gallus gallus) (UniProt P18870). The data set can be described thus: Inhibition of Jun-mediated oncogenic transformation in chicken embryo fibroblasts.
Chain of Transcription factor Jun (Gallus gallus) (P18870 whole entry): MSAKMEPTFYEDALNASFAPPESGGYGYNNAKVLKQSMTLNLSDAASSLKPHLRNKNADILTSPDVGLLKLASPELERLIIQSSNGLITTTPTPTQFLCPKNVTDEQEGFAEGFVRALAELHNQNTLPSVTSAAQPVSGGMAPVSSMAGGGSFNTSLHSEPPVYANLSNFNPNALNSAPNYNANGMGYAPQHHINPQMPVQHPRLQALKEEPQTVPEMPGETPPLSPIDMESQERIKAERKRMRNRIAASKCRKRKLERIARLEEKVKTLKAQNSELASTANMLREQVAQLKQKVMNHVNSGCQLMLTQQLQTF
Data set [4] is described as follows: Cytotoxicity against chicken embryo fibroblasts. Also on record: species or system Gallus gallus.

With `CNC(=O)[C@@H]1CN(C(=O)CCCNC(=O)OC(C)(C)C)C[C@H]1C(=O)NC[C@H](NS(=O)(=O)c1cc(Cl)sc1Cl)C(=O)OC(C)(C)C`, in data set [1], the inhibition (commonly the relative decrease from the control value, in per cent) amounted to 8%. Also, the inhibition result in data set [2] and in data set [3] was “inactive” in each case. Also, the inhibition result in the data set filed under Gallus gallus was “Active”.

In the case of `CNC(=O)[C@@H]1CN(C(=O)CCCCCNC(=O)OC(C)(C)C)C[C@H]1C(=O)NC[C@H](NS(=O)(=O)c1cc(Cl)sc1Cl)C(=O)OC(C)(C)C` [MYCMYCIN 2], the inhibition in data set [1] was determined as 18%. The inhibition entry in the data set filed under Gallus gallus is “Active”. Also, the inhibition result in data set [3] was “inactive”. The Activity entry in data set [4] is on record as “Non-toxic”.

Compound `CNC(=O)[C@@H]1CN(C(=O)CCC2CCN(C(=O)OC(C)(C)C)CC2)C[C@H]1C(=O)NCCC(=O)OC(C)(C)C` had an inhibition in data set [1] of 30%. In addition, the inhibition entry in data set [2] and in data set [3] was “inactive” throughout. The inhibition entry in the data set filed under Gallus gallus is “Active”.

In data set [1], `Cc1cc(C)c(S(=O)(=O)N[C@@H](CNC(=O)[C@@H]2CN(C(=O)CC3CCN(C(=O)OC(C)(C)C)CC3)C[C@H]2C(=O)O)C(=O)OC(C)(C)C)c(C)c1` [MYCMYCIN 1] had an inhibition of 66%. In data set [2], the inhibition result was “inactive”. The inhibition result in the data set filed under Gallus gallus is “Active”. The Activity result in data set [4] is listed as “Non-toxic”.

`CNC(=O)[C@@H]1CN(C(=O)CCC2CCN(C(=O)OC(C)(C)C)CC2)C[C@H]1C(=O)NC[C@H](NS(=O)(=O)CCc1cccc2ccccc12)C(=O)OC(C)(C)C` showed an inhibition in data set [1] of 43%. The inhibition entry in data set [2] and in data set [3] was “inactive” each time. In addition, the inhibition result in the data set listed under Gallus gallus was “Active”.

For the compound `CCCCS(=O)(=O)N[C@@H](CNC(=O)[C@@H]1CN(C(=O)CCCCCNC(=O)OC(C)(C)C)C[C@H]1C(=O)O)C(=O)OC(C)(C)C`, the inhibition in data set [1] turned out to be 72%. The inhibition entry in data set [2] and in data set [3] was “inactive” each time. Moreover, in the data set listed under Gallus gallus, the inhibition result was “Active”.

On to `CN(C)c1cccc2c(S(=O)(=O)N[C@@H](CNC(=O)[C@@H]3CN(C(=O)CCC4CCN(C(=O)OC(C)(C)C)CC4)C[C@H]3C(=O)O)C(=O)OC(C)(C)C)cccc12`, for which the inhibition in data set [1] amounted to 75%. In addition, the inhibition result in data set [2] and in data set [3] was “inactive” in each case. In addition, in the data set filed under Gallus gallus, the inhibition entry was “Active”.

In data set [1], `CNC(=O)[C@@H]1CN(C(=O)CCCCCNC(=O)OC(C)(C)C)C[C@H]1C(=O)NC[C@H](NS(=O)(=O)CCc1cccc2ccccc12)C(=O)OC(C)(C)C` yielded an inhibition of 24%. Moreover, the inhibition result in data set [2] and in data set [3] was “inactive” throughout. Besides, the inhibition result in the data set listed under Gallus gallus is “Active”.
